In publication PMC7834858 (Antiviral Research, 2020):
Like-named read-outs stand apart in the source and are kept apart here.

Legend:
[1] = tested on: human beta-coronavirus OC43–CoV; assay: OC43-CoV cytopathic effect antiviral assay in HeLa cells; format: cell-based
[2] = target: SARS-CoV-2 3CLpro (Severe acute respiratory syndrome coronavirus 2, UniProt P0DTD1); format: biochemical
[3] = tested on: human beta-coronavirus OC43–CoV; assay: OC43-CoV cytopathic effect antiviral assay in MRC-5 cells; format: cell-based; conditions: MRC5, 120 h, read-out: OC-43 MRC-5 Cells EC50
[4] = tested on: SARS-CoV-2; format: cell-based
[5] = tested on: VeroE6 cells
[6] = tested on: HeLa cells
[7] = tested on: COVID-19; conditions: COVID-19 hospitalized patients; ref Beigel et al., 2020; cited from earlier work
[8] = no reducing agent vs 1 mM GSH vs 1 mM DTT

Structure (SMILES)	Antiviral activity against OC43 (in words) [1]	Concentrations at which SARS-CoV-2 3CLpro was inhibited ([2]; absence of reducing agent only) [µM]	Effect of reducing conditions on inhibition potency [2, 8]	Inhibition of SARS-CoV-2 3CLpro activity in SAMDI-MS assay (in words) ([2]; reducing conditions (DTT))	EC50 [3] [µM]	Inhibition of SARS-CoV-2 replication (in words) [4]	Toxicity to Vero cells (in words) [5]	Concentrations at which SARS-CoV-2 3CLpro was inhibited [2] [µM]	Effect of reducing conditions on inhibition potency [2]	Inhibition of SARS-CoV-2 3CLpro activity in SAMDI-MS assay (in words) [2]	Cytotoxicity (in words) [6]	Effect on mortality [7]	Inhibition of SARS-CoV-2 3CLpro activity in SAMDI-MS assay (in words) ([2]; reducing conditions (DTT), listed as shikonin)
CCN(CC)C(=S)SSC(=S)N(CC)CC [Disulfiram]	inactive	> 30	impacted by the reducing condition	did not inhibit	> 100	did not inhibit SARS-CoV-2 replication	–	–	–	–	–	–	–
O=c1c2ccccc2[se]n1-c1ccccc1 [Ebselen]	inactive	–	–	–	> 100	did not inhibit SARS-CoV-2 replication	toxic to Vero cells	> 30	impacted by the reducing condition	did not inhibit	cytotoxic	–	–
CCC(CC)COC(=O)[C@H](C)N[P@](=O)(OC[C@H]1O[C@@](C#N)(c2ccc3c(N)ncnn23)[C@H](O)[C@@H]1O)Oc1ccccc1 [Remdesivir]	–	–	–	–	0.21	–	–	–	–	–	–	no significant effect	–
CC(C)=CC[C@@H](O)C1=CC(=O)c2c(O)ccc(O)c2C1=O [Shikonin]	inactive	–	marked loss of inhibition in the presence of DTT or GSH	failed to inhibit	> 100	did not inhibit SARS-CoV-2 replication	toxic to Vero cells	–	–	–	cytotoxic	–	did not inhibit
